# Several values for one entry are separate records, joined by “and”; a condition that tells them apart may be missing. Equal entries are not always repeated. Residues, ends and D or L forms follow the SMILES beside them.
# Legend:
# [1] = test system: MDR clinical isolates of Enterobacterales (n = 177, 152 carbapenem-resistant); experiment: Extended MIC screening, MDR clinical isolates; assay type: cell-based
# Experimental: MICs were determined in cation-adjusted Mueller–Hinton broth (CaMHB) by the broth micro-dilution method against ATCC strains and clinical isolates. MICs in the presence of Survanta® were determined as described above against P. aeruginosa ATCC 27853. In the 100 μL of fresh CaMHB containing polymyxins, 10% Survanta® (v/v, 2.5 mg/mL phospholipids) was added. MICs in the presence and absence of Survanta® were compared to determine the effect of binding to lung surfactant on the antibacterial activity of polymyxins.
# P. aeruginosa ATCC 27853 = experiment: Neutropenic mouse bloodstream infection model; assay type: in vivo; details: single IV dose 4 mg/kg; for Log10 CFU/mL blood at 4 h, Mean / Δlog10 CFU/mL blood (mean) / Log10 CFU/mL blood at 4 h, single mouse: 4 h; for Δlog10 CFU/mL blood (mean): treated minus control, mean of replicates; for Δlog10 CFU/mL blood (mean) / Log10 CFU/mL blood at 4 h, single mouse / Delta Log10 CFU/mL blood at 4 h, single mouse: 4 mg/kg; for Delta Log10 CFU/mL blood at 4 h, single mouse: treated mouse minus mean of vehicle mice
# Method in brief: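 Female Swiss mice made neutropenic with cyclophosphamide (150 mg/kg day −4, 100 mg/kg day −1), infected IV with 50 µL of 4 × 10^8 CFU/mL. Lipopeptide 4 mg/kg (free base) IV at 2 h post-inoculation, n = 3. Efficacy = Δlog10 CFU/mL blood versus saline at 4 h post-dose.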
# [2] = test system: K. pneumoniae FADDI-KP065; assay type: cell-based, Klebsiella pneumoniae; details: FADDI-KP065
# Method in brief: (§1)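 Compounds were serially diluted in CaMHB, bacteria were added, and the lowest inhibitory concentration was recorded after broth microdilution testing.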
# [3] = test system: K. pneumoniae FADDI-KP032; assay type: cell-based, Klebsiella pneumoniae; details: FADDI-KP032
# Method in brief: as §1
# [4] = Cell viability after 24 h treatment; assay type: cell-based, human; details: human, KCNJ16 knockout HK-2 cells (kidney proximal tubular), Cell viability, KCNJ16 KO, KCNJ16 knockout HK-2 cells, 24 h, Fig. 6b
# Experimental: (§2) Fig. 6 Transcriptomic changes in human kidney proximal tubular HK-2 cells following treatments with polymyxin B (PMB), colistin (COL), F287, F319, and F365. a Numbers of differentially expressed genes. Distinctive intersections are color-coded. b Cell viability difference (two-tailed Student’s t-test, n = 4 biologically independent cells, Benjamini–Hochberg adjusted P-values) between wild-type HK-2 and KCNJ16 knockout (KO) cells following 24 h treatment with lipopeptides. n.s., not significant; ^*adjusted P < 0.05, ^**adjusted P < 0.01, ^***adjusted P < 0.001. Data are shown as mean ± s.d. and individual data points. c Extracted transcriptional regulatory network from Signor database with 1-step neighbor constraints (enlarged for detail). Source data are provided as a Source Data file.
# A. baumannii AB5075 = experiment: In vitro passaging, emergence of resistance; assay type: cell-based, Acinetobacter baumannii; details: for OD600: 8 ug/mL
# Experimental: Log-phase cultures (OD600 = 0.5, ~10^8 CFU/mL) of A. baumannii AB5075 were inoculated (1:10, v/v) in 200 μL fresh CaMHB (cation-adjusted Mueller–Hinton broth) containing 2, 8 and 16 μg/mL polymyxin B, colistin, F287, and F365 in a 96-well microplate with 4 biological replicates. The cultures were incubated at 37 °C for 12 h before the next dilution (1:10, v/v) with fresh CaMHB. Successive subculturing was conducted for 7 days.
# in vitro = assay type: cell-based, human; details: human, wild-type HK-2 cells (kidney proximal tubular), Cell viability, WT
# Experimental: as §2
# Swiss mice = experiment: Acute toxicity in mice (maximum tolerated dose, IV bolus); assay type: in vivo, mouse; details: replicates 1-4
# Experimental: Lipopeptide solutions were prepared in 0.9% saline and stored at 4 °C before use. Swiss mice (female, 7-week-old, 22–28 g) were used in the study. A mouse was administered an intravenous bolus of the lipopeptide (mg/kg free base) through a lateral tail vein (≤0.1 mL). After the injection, the mouse was released back into the cage and monitored for clinical signs of toxicity from 0 to 24 h after injection as follows: every 10 min in the first 2 h, every half hour from 2 to 4 h, every hour from 4 to 12 h, and every 2 h from 12 to 24 h.
# [5] = Rep1, replicate 1, read-out: Cell viability, KCNJ16 KO, Rep1
# [6] = Rep2, replicate 2, read-out: Cell viability, KCNJ16 KO, Rep2
# [7] = Rep3, replicate 3, read-out: Cell viability, KCNJ16 KO, Rep3
# [8] = Rep4, replicate 4, read-out: Cell viability, KCNJ16 KO, Rep4
smiles,measurement,setting,value
"CCCCCCCC(=O)N[C@@H](CCN)C(=O)N[C@H](C(=O)N[C@@H](CN)C(=O)N[C@H]1CCNC(=O)[C@H]([C@@H](C)O)NC(=O)[C@H](CCN)NC(=O)[C@H](CCN)NC(=O)[C@H](CC)NC(=O)[C@@H](CC(C)C)NC(=O)[C@H](CCN)NC1=O)[C@@H](C)O [Lipopeptide F287] (HELM PEPTIDE1{[CCCCCCCC(=O)[*:2]].[Dab].T.[NC[C@H](N[*:1])C(=O)[*:2]].[Dab].[Dab].[dL].[Abu].[Dab].[Dab].T}$PEPTIDE1,PEPTIDE1,5:R3-11:R2$$$V2.0)",Number of isolates,[1]; isolates with MIC 0.05 µg/mL,0
same,Number of isolates,[1]; isolates with MIC 0.125 µg/mL,0
same,Number of isolates,[1]; isolates with MIC 0.25 µg/mL,17
same,Number of isolates,[1]; isolates with MIC 0.5 µg/mL,131
same,Number of isolates,[1]; isolates with MIC 1 µg/mL,5
same,Number of isolates,[1]; isolates with MIC 2 µg/mL,2
same,Number of isolates,[1]; isolates with MIC 4 µg/mL,1
same,Number of isolates,[1]; isolates with MIC 8 µg/mL,2
same,Number of isolates,[1]; isolates with MIC 16 µg/mL,5
same,Number of isolates,[1]; isolates with MIC 32 µg/mL,7
same,Number of isolates,[1]; isolates with MIC 64 µg/mL,3
same,Number of isolates,[1]; isolates with MIC >64 µg/mL,4
same,"Log10 CFU/mL blood at 4 h, Mean",P. aeruginosa ATCC 27853,5.02 Log10 CFU/mL blood
same,Δlog10 CFU/mL blood (mean),P. aeruginosa ATCC 27853,−2.42 log10 CFU/mL blood
same,"Log10 CFU/mL blood at 4 h, single mouse",P. aeruginosa ATCC 27853,5.21 Log10 CFU/mL blood and 4.68 Log10 CFU/mL blood and 5.18 Log10 CFU/mL blood
same,"Delta Log10 CFU/mL blood at 4 h, single mouse",P. aeruginosa ATCC 27853,-2.23 Log10 CFU/mL blood and -2.77 Log10 CFU/mL blood and -2.27 Log10 CFU/mL blood
same,MIC K. pneumoniae FADDI-KP065,[2],<0.125 µg/mL
same,MIC K. pneumoniae FADDI-KP032,[3],<0.125 µg/mL
same,viability at 24 h,[4]; [5],91.7%
same,viability at 24 h,[4]; [6],77.1%
same,viability at 24 h,[4]; [7],82.8%
same,viability at 24 h,[4]; [8],69.6%
same,OD600,"A. baumannii AB5075; time 0 h, passage 0, replicates rep1-rep4, raw OD600 (blank OD600 0.125333)",0.15 and 0.135 and 0.14
same,OD600,"A. baumannii AB5075; time 12 h, passage 1, replicates rep1-rep4, raw OD600 (blank OD600 0.114667)",0.134 and 0.126 and 0.13 and 0.129
same,OD600,"A. baumannii AB5075; time 24 h, passage 2, replicates rep1-rep4, raw OD600 (blank OD600 0.0956667)",0.091 and 0.089 and 0.086
same,OD600,"A. baumannii AB5075; time 36 h, passage 3, replicates rep1-rep4, raw OD600 (blank OD600 0.088)",0.088 and 0.089 and 0.095
same,OD600,"A. baumannii AB5075; time 48 h, passage 4, replicates rep1-rep4, raw OD600 (blank OD600 0.104667)",0.095 and 0.092 and 0.093 and 0.111
same,OD600,"A. baumannii AB5075; time 60 h, passage 5, replicates rep1-rep4, raw OD600 (blank OD600 0.122333)",0.105 and 0.107 and 0.117
same,OD600,"A. baumannii AB5075; time 72 h, passage 6, replicates rep1-rep4, raw OD600 (blank OD600 0.095)",0.097 and 0.09 and 0.087
same,OD600,"A. baumannii AB5075; time 84 h, passage 7, replicates rep1-rep4, raw OD600 (blank OD600 0.091)",0.094 and 0.097 and 0.099 and 0.113
same,OD600,"A. baumannii AB5075; time 96 h, passage 8, replicates rep1-rep4, raw OD600 (blank OD600 0.0953333)",0.111 and 0.113 and 0.11 and 0.117
same,OD600,"A. baumannii AB5075; time 108 h, passage 9, replicates rep1-rep4, raw OD600 (blank OD600 0.100667)",0.115 and 0.107 and 0.116
same,OD600,"A. baumannii AB5075; time 120 h, passage 10, replicates rep1-rep4, raw OD600 (blank OD600 0.0983333)",0.108 and 0.113 and 0.118
same,OD600,"A. baumannii AB5075; time 132 h, passage 11, replicates rep1-rep4, raw OD600 (blank OD600 0.0843333)",0.121 and 0.108 and 0.118 and 0.122
same,OD600,"A. baumannii AB5075; time 144 h, passage 12, replicates rep1-rep4, raw OD600 (blank OD600 0.091)",0.116 and 0.114 and 0.12
same,OD600,"A. baumannii AB5075; time 156 h, passage 13, replicates rep1-rep4, raw OD600 (blank OD600 0.129)",0.118 and 0.12 and 0.113 and 0.116
same,OD600,"A. baumannii AB5075; time 168 h, passage 14, replicates rep1-rep4, raw OD600 (blank OD600 0.101)",0.096 and 0.095 and 0.092 and 0.117
same,time to emergence of resistance,"A. baumannii AB5075; 4× MIC, 7-day passaging",≤ 3 days
same,growth over 7 days,A. baumannii AB5075; 32× MIC,No growth
same,viability at 24 h,in vitro; Rep1,52%
same,viability at 24 h,in vitro; Rep2,54.3%
same,viability at 24 h,in vitro; Rep4,47%
same,"MTD, single replicate",Swiss mice,6.6 mg/kg
"CCCCCCCC(=O)N[C@@H](CCN)C(=O)N[C@H](C(=O)N[C@@H](CCN)C(=O)N[C@H]1CCNC(=O)[C@H]([C@@H](C)O)NC(=O)[C@H](CCN)NC(=O)[C@H](CCN)NC(=O)[C@H](CC)NC(=O)[C@@H](CC(C)C)NC(=O)[C@H](CCN)NC1=O)[C@@H](C)O [Lipopeptide F319] (HELM PEPTIDE1{[CCCCCCCC(=O)[*:2]].[Dab].T.[Dab].[Dab].[Dab].[dL].[Abu].[Dab].[Dab].T}$PEPTIDE1,PEPTIDE1,5:R3-11:R2$$$V2.0)","Log10 CFU/mL blood at 4 h, Mean",P. aeruginosa ATCC 27853,4.01 Log10 CFU/mL blood
same,Δlog10 CFU/mL blood (mean),P. aeruginosa ATCC 27853,−3.44 log10 CFU/mL blood
same,"Log10 CFU/mL blood at 4 h, single mouse",P. aeruginosa ATCC 27853,3.87 Log10 CFU/mL blood and 4.06 Log10 CFU/mL blood and 4.10 Log10 CFU/mL blood
same,"Delta Log10 CFU/mL blood at 4 h, single mouse",P. aeruginosa ATCC 27853,-3.57 Log10 CFU/mL blood and -3.38 Log10 CFU/mL blood and -3.35 Log10 CFU/mL blood
same,MIC K. pneumoniae FADDI-KP065,[2],<0.125 µg/mL
same,MIC K. pneumoniae FADDI-KP032,[3],0.25 µg/mL
same,viability at 24 h,[4]; [5],104%
same,viability at 24 h,[4]; [6],95.5%
same,viability at 24 h,[4]; [7],91.1%
same,viability at 24 h,[4]; [8],92.6%
same,viability at 24 h,in vitro; Rep1,79%
same,viability at 24 h,in vitro; Rep2,79.1%
same,viability at 24 h,in vitro; Rep3,78.8%
same,viability at 24 h,in vitro; Rep4,70.1%

# Source: article PMC8956739, “A synthetic lipopeptide targeting top-priority multidrug-resistant Gram-negative pathogens” (Nature Communications, 2022)
